# Assay results taken from ChEMBL document CHEMBL1201862, “PubChem BioAssay data set” (2004).
# Active and inactive are the calls of the source.
# Assays:
# [1] = molecular target: T1, Alkaline phosphatase, tissue-nonspecific isozyme (Homo sapiens, UniProt P05186)
# T1 sequence (P05186 whole entry): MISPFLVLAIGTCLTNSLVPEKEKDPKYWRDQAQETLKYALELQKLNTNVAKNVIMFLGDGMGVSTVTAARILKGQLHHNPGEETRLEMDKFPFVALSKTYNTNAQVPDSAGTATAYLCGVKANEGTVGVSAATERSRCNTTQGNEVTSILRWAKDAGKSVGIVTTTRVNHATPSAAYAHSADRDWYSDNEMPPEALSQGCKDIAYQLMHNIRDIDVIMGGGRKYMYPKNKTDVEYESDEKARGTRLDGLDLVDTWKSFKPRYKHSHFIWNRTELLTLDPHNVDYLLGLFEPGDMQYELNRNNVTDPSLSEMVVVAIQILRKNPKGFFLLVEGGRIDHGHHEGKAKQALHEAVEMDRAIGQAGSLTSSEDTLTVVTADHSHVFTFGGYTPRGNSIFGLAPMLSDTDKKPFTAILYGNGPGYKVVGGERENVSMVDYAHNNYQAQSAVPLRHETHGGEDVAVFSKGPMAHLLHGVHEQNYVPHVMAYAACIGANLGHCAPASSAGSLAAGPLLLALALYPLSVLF
# [2] = inhibitors of firefly luciferase expression or activity, dose response, H4 neuroglioma cells, luminescence (AID 1990); assay type: functional, cell-based
# BJ [3] = test: cytotoxicity toward BJ-TERT fibroblasts, dose response, cell-based, RAS-independent, luminescence (AID 1933); assay type: functional; conditions: Homo sapiens
# [4] = Luminescence Cell-Based Dose Response HTS to Identify Inhibitors of 5'UTR Stem-Loop Driven Prion Protein mRNA Translation in H4 Neuroglioblastoma Cells. [Related pubchem assays: 1827 (Project Summary), 1813 (Primary HTS)]; assay type: functional
# Vero [5] = test: host cell cytotoxicity of antiviral hits, dose response, cytotoxicity control for West Nile virus antiviral project, secondary assay (AID 1650); assay type: functional; conditions: Chlorocebus sabaeus
# [6] = inhibitors of SNCA 5'UTR-driven reporter translation, confirmation, H4 neuroglioma cells, luminescence (AID 1988); assay type: functional, cell-based
# BJ [7] = test: cells; assay type: functional, cell-based; conditions: Homo sapiens
# [8] = Luminescence-based counterscreen assay for KLF5 inhibitors: dose response cell-based high throughput screening assay to identify cytotoxic compounds using the IEC-6 intestinal epithelial cell line. [Related pubchem assays: 1700 (Primary screen.), 1834 (Confirmation screen.), 1858 (Summary AID.), 1905 (Counterscreen.)]; assay type: functional
# BJ [9] = test: cytotoxicity toward BJ-TERT-LT-ST fibroblasts, dose response, cell-based, RAS-independent, luminescence (AID 1935); assay type: functional; conditions: Homo sapiens;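 note: BJ fibroblasts immortalized with TERT plus LT and ST oncogenes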
# [10] = cytotoxicity toward DRD oncogenic fibroblasts, dose response, cell-based, non-viral oncogenic, luminescence (AID 1934); assay type: functional; conditions: Homo sapiens
# [11] = Luminescence Cell-Based Dose Retest to Confirm Inhibitors of Cancer Stem Cells. [Related pubchem assays (depositor defined):AID2717, AID2721]; assay type: functional, Homo sapiens
# [12] = cytotoxicity in HEK-293T cells, dose response, cytotoxicity control for TCR NF-kB inhibitor project, luminescence, T-cell screen hits (AID 489026); assay type: functional, cell-based;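 note: cells exposed to compound about 14 hours before the viability readout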
# Vero [13] = test: cells; assay type: functional, cell-based; conditions: Chlorocebus sabaeus
# BJ [14] = test: cytotoxicity toward Ras-transformed BJeLR fibroblasts, dose response, cell-based, alamar blue fluorescence, cherrypicked samples (AID 2631); assay type: functional; conditions: Homo sapiens;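 note: confirmatory dose-response assay in RAS-dependent BJ fibroblasts engineered with TERT, LT and ST, with cytotoxicity read by fluorescence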
# Vero [15] = test: cells; assay type: functional; conditions: Chlorocebus sabaeus
# Paired box protein Pax-8 = Paired box protein Pax-8 (Homo sapiens, UniProt Q06710); test: inhibitors of PAX8-driven TPO luciferase reporter, dose response, RMG-I cells, cherry-pick (AID 687027); assay type: functional, cell-based;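 note: luciferase reporter driven by Pax8 target thyroperoxidase promoter measured by SteadyGlo luminescence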
# Chain of Paired box protein Pax-8 (Q06710 whole entry): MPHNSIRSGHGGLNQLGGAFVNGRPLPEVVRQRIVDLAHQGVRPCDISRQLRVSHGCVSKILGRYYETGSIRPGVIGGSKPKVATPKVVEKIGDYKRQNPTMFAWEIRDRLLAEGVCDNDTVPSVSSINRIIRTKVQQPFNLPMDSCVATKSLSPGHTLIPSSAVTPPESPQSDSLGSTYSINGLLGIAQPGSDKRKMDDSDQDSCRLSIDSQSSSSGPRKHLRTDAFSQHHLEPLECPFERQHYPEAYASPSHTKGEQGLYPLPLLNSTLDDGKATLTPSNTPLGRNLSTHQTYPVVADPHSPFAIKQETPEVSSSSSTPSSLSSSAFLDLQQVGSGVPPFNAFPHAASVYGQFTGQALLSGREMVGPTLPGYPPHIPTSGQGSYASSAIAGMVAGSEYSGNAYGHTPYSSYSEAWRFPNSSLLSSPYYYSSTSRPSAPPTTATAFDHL
# Bcl-2-like protein 10 = Bcl-2-like protein 10 (Homo sapiens, UniProt Q9HD36); test: Biochemical TR3 FP assay of Bcl-B inhibitor potency, EC50 (AID 1243); assay type: functional
# Chain of Bcl-2-like protein 10 (Q9HD36 whole entry): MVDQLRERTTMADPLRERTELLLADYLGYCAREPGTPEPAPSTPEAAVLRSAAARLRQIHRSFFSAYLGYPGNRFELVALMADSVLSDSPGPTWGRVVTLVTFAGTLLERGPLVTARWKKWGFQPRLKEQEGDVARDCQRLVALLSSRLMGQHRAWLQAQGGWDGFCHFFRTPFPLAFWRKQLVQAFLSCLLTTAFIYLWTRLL
# [16] = molecular target: Luciferin 4-monooxygenase (Photinus pyralis, UniProt P08659); test: Counter Screen for Luciferase-based Assay Positives. [Related pubchem assays: 620, 618, 411 ]
# HT-1080 = test: cytotoxicity in HT1080 fibrosarcoma cells, cell-based, fluorescence readout (AID 620); assay type: functional; conditions: Homo sapiens
# [17] = enhancers of respiration in Yfh1-depleted yeast, dose response, Friedreich's ataxia, plus single-dose screen (AID 1465); assay type: functional;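 note: yeast depleted of Yfh1p frataxin homolog grown on glycerol needing respiration; WST-1 tetrazolium dye reduction as measure of cellular dehydrogenase metabolic activity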
# [18] = molecular target: Neuropeptide Y receptor type 1 (Homo sapiens, UniProt P25929); assay type: functional;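 note: HEK293 cells with a CNG channel challenged with NPY then isoproterenol; potency as antagonist that reverses NPY suppression of cAMP signal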
# Chain of Neuropeptide Y receptor type 1 (P25929 whole entry): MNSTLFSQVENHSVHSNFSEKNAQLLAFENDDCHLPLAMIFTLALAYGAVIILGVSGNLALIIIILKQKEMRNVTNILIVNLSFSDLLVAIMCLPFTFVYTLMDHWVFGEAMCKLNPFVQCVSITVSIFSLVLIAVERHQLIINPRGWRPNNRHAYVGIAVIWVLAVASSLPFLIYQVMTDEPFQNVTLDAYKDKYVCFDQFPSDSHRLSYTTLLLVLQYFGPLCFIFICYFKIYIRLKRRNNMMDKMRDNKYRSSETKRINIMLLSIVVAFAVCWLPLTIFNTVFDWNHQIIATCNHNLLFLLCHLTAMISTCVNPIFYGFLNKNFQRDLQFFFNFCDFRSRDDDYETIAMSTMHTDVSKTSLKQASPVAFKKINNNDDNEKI
# [19] = molecular target: Neuropeptide Y receptor type 2 (Homo sapiens, UniProt P49146); assay type: functional, cell-based;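 note: HEK293 cells expressing the receptor and a CNG channel; stimulus was NPY near EC95 followed by isoproterenol to raise cAMP; antagonist potency measured as restoring cAMP signal that NPY suppresses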
# Chain of Neuropeptide Y receptor type 2 (P49146 whole entry): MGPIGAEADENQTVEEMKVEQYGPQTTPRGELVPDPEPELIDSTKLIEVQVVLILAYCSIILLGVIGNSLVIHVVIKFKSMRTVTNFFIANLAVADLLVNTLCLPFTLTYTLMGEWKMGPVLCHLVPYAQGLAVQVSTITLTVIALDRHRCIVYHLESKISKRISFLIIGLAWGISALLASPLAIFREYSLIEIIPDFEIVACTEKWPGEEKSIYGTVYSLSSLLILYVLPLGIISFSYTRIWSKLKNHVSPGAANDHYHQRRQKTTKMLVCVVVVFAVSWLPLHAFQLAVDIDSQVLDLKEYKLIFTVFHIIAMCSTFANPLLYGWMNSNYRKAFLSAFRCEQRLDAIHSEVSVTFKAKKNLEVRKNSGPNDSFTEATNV
# [20] = molecular target: T2, Kappa-type opioid receptor (Homo sapiens, UniProt P41145); assay type: functional
# T2 sequence (P41145 whole entry): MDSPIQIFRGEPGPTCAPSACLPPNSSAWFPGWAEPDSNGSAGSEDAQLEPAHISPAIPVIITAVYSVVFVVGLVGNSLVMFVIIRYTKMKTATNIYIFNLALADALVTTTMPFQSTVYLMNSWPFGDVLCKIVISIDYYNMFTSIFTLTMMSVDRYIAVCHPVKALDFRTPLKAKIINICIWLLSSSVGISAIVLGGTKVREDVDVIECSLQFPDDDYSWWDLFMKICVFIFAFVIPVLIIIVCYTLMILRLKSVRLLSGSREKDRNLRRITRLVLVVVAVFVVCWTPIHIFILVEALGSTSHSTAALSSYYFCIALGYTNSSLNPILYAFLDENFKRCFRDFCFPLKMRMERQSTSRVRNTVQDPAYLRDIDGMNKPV
# Beta-galactosidase = Beta-galactosidase (Escherichia coli, UniProt Q8VNN2); assay type: functional
# Chain of Beta-galactosidase (Q8VNN2 whole entry): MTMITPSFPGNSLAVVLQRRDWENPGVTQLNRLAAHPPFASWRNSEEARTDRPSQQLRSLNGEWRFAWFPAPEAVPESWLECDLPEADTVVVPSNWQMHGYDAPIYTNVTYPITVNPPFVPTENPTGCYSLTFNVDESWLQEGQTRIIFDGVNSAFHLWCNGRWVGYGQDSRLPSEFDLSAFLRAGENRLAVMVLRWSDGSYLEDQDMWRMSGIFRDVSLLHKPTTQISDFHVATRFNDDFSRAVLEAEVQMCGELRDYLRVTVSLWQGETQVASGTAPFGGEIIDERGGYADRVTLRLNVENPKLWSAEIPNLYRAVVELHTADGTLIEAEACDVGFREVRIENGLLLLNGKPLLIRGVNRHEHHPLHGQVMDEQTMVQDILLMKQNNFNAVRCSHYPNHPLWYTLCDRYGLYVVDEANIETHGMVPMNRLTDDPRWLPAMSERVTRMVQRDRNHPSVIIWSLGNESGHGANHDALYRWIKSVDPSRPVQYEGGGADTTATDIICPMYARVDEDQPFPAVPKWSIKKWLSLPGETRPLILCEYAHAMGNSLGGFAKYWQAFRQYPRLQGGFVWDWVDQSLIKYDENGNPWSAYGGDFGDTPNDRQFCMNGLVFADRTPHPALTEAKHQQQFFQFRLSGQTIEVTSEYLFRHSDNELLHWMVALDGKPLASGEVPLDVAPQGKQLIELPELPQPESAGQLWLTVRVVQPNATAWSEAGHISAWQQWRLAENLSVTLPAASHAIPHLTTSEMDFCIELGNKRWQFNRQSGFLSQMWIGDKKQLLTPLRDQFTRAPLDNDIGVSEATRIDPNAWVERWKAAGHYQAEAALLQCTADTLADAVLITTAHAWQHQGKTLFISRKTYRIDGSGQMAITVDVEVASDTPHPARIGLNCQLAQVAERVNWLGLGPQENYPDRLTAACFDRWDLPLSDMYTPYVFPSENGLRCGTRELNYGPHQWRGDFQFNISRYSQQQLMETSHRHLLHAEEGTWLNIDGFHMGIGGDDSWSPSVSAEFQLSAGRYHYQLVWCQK
# [21] = molecular target: T2, Kappa-type opioid receptor; assay type: functional; remark: listed apart in the source
# [22] = molecular target: T3, Microphthalmia-associated transcription factor (Homo sapiens, UniProt O75030); test: TRPM1 promoter luciferase signal decrease, dose response, MITF inhibitor project, cell-based, SK-MEL-5, cherry-picked, set 3 (AID 493073); assay type: functional
# T3 sequence (O75030 whole entry): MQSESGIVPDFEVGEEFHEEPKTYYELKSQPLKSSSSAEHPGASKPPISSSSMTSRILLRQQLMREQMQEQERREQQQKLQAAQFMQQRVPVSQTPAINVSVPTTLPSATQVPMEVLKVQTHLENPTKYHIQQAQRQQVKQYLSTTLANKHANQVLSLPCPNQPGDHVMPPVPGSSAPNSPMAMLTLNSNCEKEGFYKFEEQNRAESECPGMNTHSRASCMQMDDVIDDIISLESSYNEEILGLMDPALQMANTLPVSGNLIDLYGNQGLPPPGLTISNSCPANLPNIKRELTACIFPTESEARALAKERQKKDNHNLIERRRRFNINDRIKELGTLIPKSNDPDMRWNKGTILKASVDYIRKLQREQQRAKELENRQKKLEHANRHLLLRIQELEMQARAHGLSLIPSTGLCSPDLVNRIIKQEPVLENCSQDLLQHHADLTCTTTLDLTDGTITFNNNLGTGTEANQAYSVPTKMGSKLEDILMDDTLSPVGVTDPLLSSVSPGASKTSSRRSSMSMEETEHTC
# [23] = Fluorescence-based cell-based high throughput dose response assay for inhibitors of the interaction of nucleotide-binding oligomerization domain containing 2 (NOD2) and the receptor-interacting serine-threonine kinase 2 (RIPK2).; assay type: functional; conditions: Homo sapiens
# Beta Lactamase = Beta Lactamase (Pseudomonas aeruginosa, UniProt Q932Y6); test: beta-lactamase reporter inhibitor potency, dose response, artefact control for NOD2-RIPK2 interaction inhibitor project, BLA reporter cells, FRET fluorescence (AID 651552); assay type: functional, cell-based
# Chain of Beta Lactamase (Q932Y6 whole entry): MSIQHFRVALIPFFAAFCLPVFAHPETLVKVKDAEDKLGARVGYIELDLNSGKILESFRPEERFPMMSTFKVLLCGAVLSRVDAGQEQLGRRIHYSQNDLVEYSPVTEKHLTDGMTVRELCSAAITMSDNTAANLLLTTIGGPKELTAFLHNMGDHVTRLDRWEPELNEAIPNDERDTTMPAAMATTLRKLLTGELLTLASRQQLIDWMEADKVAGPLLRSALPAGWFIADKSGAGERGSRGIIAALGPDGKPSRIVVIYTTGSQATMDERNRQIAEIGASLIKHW
# [24] = HeLa cell cytotoxicity, dose response, cytotoxicity control for MgcRacGAP inhibitor project (AID 624300); assay type: functional
# [25] = molecular target: T4, Rac GTPase-activating protein 1 (Homo sapiens, UniProt Q9H0H5); test: MgcRacGAP GTPase-activating activity inhibitors, confirmation, biochemical, ADP Hunter fluorescence, primary and confirmatory (AID 624330); assay type: functional
# T4 sequence (Q9H0H5 whole entry): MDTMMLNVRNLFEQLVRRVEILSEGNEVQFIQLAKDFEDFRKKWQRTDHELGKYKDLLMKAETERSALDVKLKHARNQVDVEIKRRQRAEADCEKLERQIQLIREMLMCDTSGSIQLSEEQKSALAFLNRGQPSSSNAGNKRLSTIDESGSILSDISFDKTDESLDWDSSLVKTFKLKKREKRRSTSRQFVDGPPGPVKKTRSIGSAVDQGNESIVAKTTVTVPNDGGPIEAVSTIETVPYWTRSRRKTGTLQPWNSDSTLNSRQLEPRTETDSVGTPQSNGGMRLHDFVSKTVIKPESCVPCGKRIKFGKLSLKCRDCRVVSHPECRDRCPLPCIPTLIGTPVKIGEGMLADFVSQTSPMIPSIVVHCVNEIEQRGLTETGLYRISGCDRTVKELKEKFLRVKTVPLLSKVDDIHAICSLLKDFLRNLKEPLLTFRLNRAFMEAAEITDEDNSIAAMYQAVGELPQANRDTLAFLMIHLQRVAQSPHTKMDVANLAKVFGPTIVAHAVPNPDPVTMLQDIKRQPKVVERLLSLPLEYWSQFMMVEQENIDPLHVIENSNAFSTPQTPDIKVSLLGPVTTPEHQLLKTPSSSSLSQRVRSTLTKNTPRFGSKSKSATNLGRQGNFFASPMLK
# SUMO-activating enzyme [26] = molecular target: T5, SUMO-activating enzyme (Homo sapiens, UniProt Q9UBT2); test: SUMOylation inhibitor hit validation, confirmation, SUMOylation inhibitor project, biochemical, AlphaScreen (AID 2018); assay type: functional
# T5 sequence (Q9UBE0 whole entry, the tested form may be a part): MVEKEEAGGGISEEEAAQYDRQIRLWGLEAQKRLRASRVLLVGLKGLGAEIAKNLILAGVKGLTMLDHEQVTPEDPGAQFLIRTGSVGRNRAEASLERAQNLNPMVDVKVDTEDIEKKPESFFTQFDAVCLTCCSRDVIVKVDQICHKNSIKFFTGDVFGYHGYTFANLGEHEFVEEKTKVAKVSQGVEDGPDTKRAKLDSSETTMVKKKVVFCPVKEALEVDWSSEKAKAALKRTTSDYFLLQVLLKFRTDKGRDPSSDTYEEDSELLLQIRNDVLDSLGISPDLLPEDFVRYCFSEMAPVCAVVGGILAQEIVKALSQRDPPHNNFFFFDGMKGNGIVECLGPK
# T5 sequence (Q9UBT2 whole entry, the tested form may be a part): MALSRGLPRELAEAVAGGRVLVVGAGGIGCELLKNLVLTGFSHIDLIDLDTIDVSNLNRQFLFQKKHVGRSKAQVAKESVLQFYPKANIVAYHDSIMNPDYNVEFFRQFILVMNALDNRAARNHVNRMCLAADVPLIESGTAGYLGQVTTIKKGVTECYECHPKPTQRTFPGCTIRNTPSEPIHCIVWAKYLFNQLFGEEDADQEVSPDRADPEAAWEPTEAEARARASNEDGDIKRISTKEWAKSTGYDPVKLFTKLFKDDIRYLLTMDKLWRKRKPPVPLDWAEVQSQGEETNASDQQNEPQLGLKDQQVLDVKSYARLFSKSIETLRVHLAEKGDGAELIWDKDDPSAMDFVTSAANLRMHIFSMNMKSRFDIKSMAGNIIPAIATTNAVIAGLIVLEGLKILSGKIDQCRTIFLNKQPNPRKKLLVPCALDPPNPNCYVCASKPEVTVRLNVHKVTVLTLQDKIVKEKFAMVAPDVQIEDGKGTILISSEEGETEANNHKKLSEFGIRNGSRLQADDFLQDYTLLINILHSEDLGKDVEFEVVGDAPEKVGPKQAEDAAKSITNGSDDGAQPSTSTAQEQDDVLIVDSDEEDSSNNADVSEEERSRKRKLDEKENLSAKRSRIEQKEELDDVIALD
# [27] = HIV-1 Env-mediated cell fusion inhibitors, dose response, CCR5-tropic Env (AID 2279); assay type: functional
# SUMO-activating enzyme [28] = molecular target: T5, SUMO-activating enzyme; test: inhibitors of in vitro SUMOylation cascade, primary screen, biochemical, HTRF, uHTS (AID 2006); assay type: protein-complex assay
# [29] = molecular target: T6, Calpain-2 catalytic subunit (Sus scrofa, UniProt P43367); test: pig calpain II inhibitor potency, dose response, biochemical, fluorogenic peptide substrate (AID 1420); assay type: functional
# T6 sequence (P43367 whole entry): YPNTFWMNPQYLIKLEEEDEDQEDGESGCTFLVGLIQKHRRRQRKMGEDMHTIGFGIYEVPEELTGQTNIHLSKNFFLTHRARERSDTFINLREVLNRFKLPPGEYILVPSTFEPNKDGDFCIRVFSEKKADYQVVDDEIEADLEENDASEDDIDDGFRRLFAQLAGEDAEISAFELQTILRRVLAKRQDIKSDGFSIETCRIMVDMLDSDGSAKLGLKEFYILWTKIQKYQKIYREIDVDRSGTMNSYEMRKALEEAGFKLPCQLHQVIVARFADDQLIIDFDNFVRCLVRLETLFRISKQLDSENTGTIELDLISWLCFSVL
# [30] = molecular target: Induced myeloid leukemia cell differentiation protein Mcl-1 (Homo sapiens, UniProt Q07820); assay type: functional
# Chain of Induced myeloid leukemia cell differentiation protein Mcl-1 (Q07820 whole entry): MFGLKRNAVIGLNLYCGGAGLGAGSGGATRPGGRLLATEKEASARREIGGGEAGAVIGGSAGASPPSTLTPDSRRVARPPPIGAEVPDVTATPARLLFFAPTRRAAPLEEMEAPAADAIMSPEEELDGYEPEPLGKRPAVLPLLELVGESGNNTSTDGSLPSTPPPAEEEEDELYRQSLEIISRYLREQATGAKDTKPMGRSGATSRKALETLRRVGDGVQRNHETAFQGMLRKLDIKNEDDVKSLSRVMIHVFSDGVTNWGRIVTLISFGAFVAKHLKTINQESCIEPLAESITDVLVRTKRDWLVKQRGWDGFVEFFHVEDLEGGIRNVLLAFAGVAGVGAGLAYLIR
# HeLa = test: Cytotoxicity counterscreen assay for transcriptional activators of heat shock protein 70 (Hsp70). [Related pubchem assays: 1203, 1252 ]; assay type: functional; conditions: Homo sapiens;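 note: cells exposed to compound for 16 hours before readout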
# [31] = molecular target: Mothers against decapentaplegic homolog 3 (Homo sapiens, UniProt P84022); test: Smad3 binding inhibitors, lysate ELISA, dose response, cell lysate, secondary confirmation, chemiluminescent ELISA, HEK293 lysate (AID 1058); assay type: functional
# Chain of Mothers against decapentaplegic homolog 3 (P84022 whole entry): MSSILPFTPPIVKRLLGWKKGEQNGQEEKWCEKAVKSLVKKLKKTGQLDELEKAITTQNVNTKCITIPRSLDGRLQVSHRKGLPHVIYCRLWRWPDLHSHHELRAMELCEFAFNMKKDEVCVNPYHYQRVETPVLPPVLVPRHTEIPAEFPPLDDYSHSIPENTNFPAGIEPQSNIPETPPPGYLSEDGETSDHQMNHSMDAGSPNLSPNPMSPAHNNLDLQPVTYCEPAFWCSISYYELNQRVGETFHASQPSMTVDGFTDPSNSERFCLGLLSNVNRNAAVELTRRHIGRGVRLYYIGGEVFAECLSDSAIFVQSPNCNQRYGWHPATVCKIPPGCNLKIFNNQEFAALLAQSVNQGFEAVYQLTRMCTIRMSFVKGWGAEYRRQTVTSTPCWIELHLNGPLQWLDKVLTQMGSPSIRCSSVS
smiles,measurement,setting,value
COCCNC(=O)CCC(=O)NNc1nc2ccccc2c2nc(-c3ccccc3)nn12,EC50,[1],82 µM (not active)
C[C@@H]1O[C@@H](O[C@H]2C[C@@H](O)[C@]3(CO)[C@H]4[C@H](O)C[C@]5(C)[C@@H](C6COC(=O)C6)CC[C@]5(O)[C@@H]4CC[C@]3(O)C2)[C@H](O)[C@H](O)[C@H]1O (stereo partly drawn),EC50,[2],0.251 µM (active)
same,EC50,BJ [3],0.405 µM (inconclusive)
same,EC50,[4],0.132 µM (active)
same,CC50,Vero [5],1.91 µM (active)
same,EC50,[6],0.102 µM (active)
same,EC50,BJ [7],4.77 µM (inconclusive)
same,IC50,[8],> 39.8 µM (not active)
same,EC50,BJ [9],2.78 µM (inconclusive)
same,EC50,[10],0.44 µM (active)
same,AC50,[11],1.28 µM (active)
same,AC50,[11]; Homo sapiens,1.46 µM (active)
same,IC50,[12],> 80 µM (inactive)
same,IC50,Vero [13],< 0.05 µM (active)
same,EC50,BJ [14],0.39 µM (active)
same,CC50,Vero [15],4.84 µM (active)
same,AC50,Paired box protein Pax-8,5.38 µM (active)
COc1ccc(OC)c(C=NNC(=O)c2cc[n+](CC(=O)c3ccccc3)cc2)c1,EC50,Bcl-2-like protein 10,1.35 µM (active)
CCc1nnc(NC(=O)c2ccc(OC)cc2OC)s1,EC50,[16],> 100 µM (not active)
same,EC50,HT-1080,> 50 µM (not active)
CCCOc1ccc(C2NC(S)=NC(c3ccccc3)=C2C(=O)Nc2ccc(C)cc2)cc1OC (stereo not drawn),EC50,[17],> 100 µM (active)
N#CC(C#N)=C1C=CC=CN1/C(=C\c1ccco1)C(=O)c1ccc(Cl)cc1,IC50,[18],4.08 µM (active)
same,IC50,[19],3.06 µM (active)
same,IC50,[20],3.64 µM (active)
same,EC50,Beta-galactosidase,> 31.5 µM (inactive)
same,IC50,[21],16.5 µM
same,AC50,[22],6.85 µM (active)
same,IC50,[23],1.13 µM (active)
same,IC50,Beta Lactamase,45.9 µM (inactive)
same,CC50,[24],100 µM (active)
same,IC50,[25],121 µM (active)
O=[N+]([O-])c1cccc(S(=O)(=O)Nc2nc3ccccc3nc2Nc2cccc(S(=O)(=O)N3CCCCC3)c2)c1,IC50,SUMO-activating enzyme [26],4.59 µM (active)
same,IC50,[27],6.03 µM (active)
same,IC50,SUMO-activating enzyme [28],20.1 µM (active)
same,IC50,[29],4.49 µM (not active)
same,IC50,[30],5.85 µM (active)
Cc1cc(C)nc(SCc2nnc(SCC(=O)Nc3cc(C(F)(F)F)ccc3Cl)o2)n1,CC50,HeLa,> 99 µM (not active)
COc1ccc(C(c2cc3c(cc2O)OCO3)N2CCCC2)cc1 (stereo not drawn),IC50,[31],14.6 µM (not active)
